Results from BindingDB's records for PubMed 32539378 (Shandong University, 2020).

Tests used:
[1] = target: Spike glycoprotein (Severe acute respiratory syndrome coronavirus 2, UniProt P0DTC2); assay: Inhibition of SARS-COV2 spike protein mediated infection of human ACE2 expressing cells at 50 uM […]
[2] = Inhibition of SARS-COV2 spike protein mediated infection of human ACE2 expressing cells at 50 uM […]
[3] = target: Angiotensin-converting enzyme 2 (Homo sapiens, UniProt Q9BYF1); assay: Inhibition of SARS-COV2 S-RBD binding to human ACE2 expressed in HEK293T cells by NanoLuc luciferase assay
Chain of Angiotensin-converting enzyme 2 (Q9BYF1 whole entry): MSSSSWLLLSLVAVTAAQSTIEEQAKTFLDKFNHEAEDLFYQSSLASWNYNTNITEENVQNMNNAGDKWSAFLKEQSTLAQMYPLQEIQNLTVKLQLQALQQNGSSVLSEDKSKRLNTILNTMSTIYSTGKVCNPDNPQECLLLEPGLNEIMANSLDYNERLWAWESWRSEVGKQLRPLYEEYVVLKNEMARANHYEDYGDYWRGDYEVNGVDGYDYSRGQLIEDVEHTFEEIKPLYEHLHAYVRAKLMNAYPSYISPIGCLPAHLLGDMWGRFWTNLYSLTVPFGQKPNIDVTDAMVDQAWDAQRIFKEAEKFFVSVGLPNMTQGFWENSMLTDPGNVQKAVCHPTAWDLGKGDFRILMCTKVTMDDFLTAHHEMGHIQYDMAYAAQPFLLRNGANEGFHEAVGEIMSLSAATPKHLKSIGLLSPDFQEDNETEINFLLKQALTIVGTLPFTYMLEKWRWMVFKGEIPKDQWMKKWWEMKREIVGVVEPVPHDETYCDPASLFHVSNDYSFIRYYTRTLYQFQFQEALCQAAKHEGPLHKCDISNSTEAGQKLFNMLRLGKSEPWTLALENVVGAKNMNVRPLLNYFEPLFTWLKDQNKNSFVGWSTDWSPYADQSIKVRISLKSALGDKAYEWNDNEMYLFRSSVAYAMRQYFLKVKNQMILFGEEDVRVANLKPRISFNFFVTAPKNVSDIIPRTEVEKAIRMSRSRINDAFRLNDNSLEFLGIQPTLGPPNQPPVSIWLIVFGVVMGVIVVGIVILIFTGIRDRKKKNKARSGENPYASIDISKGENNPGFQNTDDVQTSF

Structure (SMILES) | IC50 [2] [µM] | further results
COc1cc(Cc2cnc(N)nc2N)cc2c(N(C)C)cc(C)nc12 |  | IC50 [1]: 600 nM
O=C(OC[C@H]1O[C@@H](OC(=O)c2cc(O)c(O)c(O)c2)[C@H](OC(=O)c2cc(O)c(O)c(O)c2)[C@H](OC(=O)c2cc(O)c(O)c(O)c2)[C@@H]1O)c1cc(O)c(O)c(O)c1 [med.21724, Compound 2] | 4.5 | 
COc1cc(C)nc2c(OC)cc(Cc3cnc(N)nc3N)cc12 |  | IC50 [3]: 700 nM
O=c1cc(-c2ccc(O)c(O)c2)oc2cc(O)cc(O)c12 [2-(3,4-dihydroxyphenyl)-5,7-dihydroxy-4H-chromen-4-one] | 10.6 | 
